This data set deals with rodent lifetime carcinogenesis bioassay, tumor incidence TD50. Description: chronic cancer bioassays in animals – CPDB, compiled studies (AID 1745844).

Active and inactive are the calls of the source. No rule for the calls is given here.

From PubChem BioAssay AID1745844 (Carcinogenic Potency Database (CPDB), 2022) come the findings set out here.

What is called TD50 is the dose at which the toxic effect under study appears in half of the subjects.

For the compound `CC(O)CN(CCO)N=O` (stereo unspecified), the TD50 is 6.74 mg/kg/day (rat, strain Fischer 344, females, in drinking water, site: esophagus, lesion: several types, types named in the paper, dosed 50 weeks, study length 75 weeks); 4.5 mg/kg/day (rat, strain Fischer 344, females, in drinking water, site: liver, lesion: angiosarcoma, dosed 50 weeks, study length 75 weeks); 1.02 mg/kg/day (rat, strain Fischer 344, females, in drinking water, site: liver, lesion: hepatocellular carcinoma, dosed 50 weeks, study length 75 weeks); 1.12 mg/kg/day (rat, strain Fischer 344, females, in drinking water, site: liver, lesion: several types, types named in the paper, dosed 50 weeks, study length 75 weeks); 5.44 mg/kg/day (rat, strain Fischer 344, females, in drinking water, site: nasal cavity, lesion: olfactory carcinoma, dosed 50 weeks, study length 75 weeks).
For `Nc1ccc(-c2ccc(N)c(O)c2)cc1O`, the TD50 (mouse, strain ICR/Jcl, males, in feed, site: liver, lesion: hepatoma, dosed 65 weeks, study length 65 weeks) is 353 mg/kg/day.
For `O=C1CCCCCN1`, the carcinogen call was “negative (inactive)” (mouse, strain B6C3F1, females, in feed, site: any site (literature study), lesion: several types, types named in the paper, dosed 103 weeks, study length 105 weeks); “negative (inactive)” (mouse, strain B6C3F1, males, in feed, site: any site (literature study), lesion: several types, types named in the paper, dosed 103 weeks, study length 105 weeks); “negative (inactive)” (rat, strain Fischer 344, females, in feed, site: any site (literature study), lesion: several types, types named in the paper, dosed 103 weeks, study length 105 weeks). The TD50 (mouse, strain B6C3F1, males, in feed, site: liver, lesion: hepatocellular adenoma + hepatocellular carcinoma + neoplastic nodule, dosed 103 weeks, study length 105 weeks) turned out to be 34300 mg/kg/day; the TD50 (rat, strain Fischer 344, males, in feed, site: liver, lesion: hepatocellular adenoma + hepatocellular carcinoma + neoplastic nodule, dosed 103 weeks, study length 105 weeks) was 5690 mg/kg/day; the TD50 (rat, strain Fischer 344, males, in feed, site: pituitary gland, lesion: carcinoma, NOS, dosed 103 weeks, study length 105 weeks) was 3560 mg/kg/day (inactive).
On to `O=C1OC(=O)c2ccccc21`, for which the carcinogen call is “negative (inactive)” (mouse, strain B6C3F1, females, in feed, site: any site (literature study), lesion: several types, types named in the paper, dosed 104 weeks, study length 104 weeks); “negative (inactive)” (mouse, strain B6C3F1, males, in feed, site: any site (literature study), lesion: several types, types named in the paper, dosed 104 weeks, study length 104 weeks); “negative (inactive)” (rat, strain Fischer 344, males, in feed, site: any site (literature study), lesion: several types, types named in the paper, dosed 105 weeks, study length 105 weeks). The TD50 runs as follows: (mouse, strain B6C3F1, males, in feed, site: liver, lesion: hepatocellular adenoma + hepatocellular carcinoma + neoplastic nodule, dosed 104 weeks, study length 104 weeks) 7460 mg/kg/day; (rat, strain Fischer 344, females, in feed, site: any site (literature study), lesion: several types, types named in the paper, dosed 105 weeks, study length 105 weeks) 4500 mg/kg/day; (rat, strain Fischer 344, females, in feed, site: lung, lesion: alveolar/bronchiolar adenoma, dosed 105 weeks, study length 105 weeks) 6230 mg/kg/day (inactive).
Regarding `CCSCC[C@H](N)C(=O)O`, the carcinogen call (rat, strain Wistar, males, in feed, site: liver, lesion: carcinoma, dosed 34 weeks, study length 52 weeks) was “positive”.
Regarding `O=C(Nc1cccc2c(=O)cc(-c3nn[nH]n3)oc12)c1ccc(OCCCCc2ccccc2)cc1`, the carcinogen call (rat, strain Jcl:SD, females, by gavage, site: liver, lesion: one or several types, types not named, dosed 52 weeks, study length 52 weeks) was “negative (inactive)”; the carcinogen call (rat, strain Jcl:SD, females, by gavage, site: liver, lesion: one or several types, types not named, dosed 52 weeks, study length 56 weeks) was “negative (inactive)”; the carcinogen call (rat, strain Jcl:SD, males, by gavage, site: liver, lesion: neoplastic nodule, dosed 52 weeks, study length 56 weeks) was “negative (inactive)”; the carcinogen call (rat, strain Jcl:SD, males, by gavage, site: liver, lesion: one or several types, types not named, dosed 52 weeks, study length 52 weeks) was “negative (inactive)”.
Regarding `CN(CCCO)N=O`, the TD50 reads like this: (rat, strain Fischer 344, females, by gavage, site: liver, lesion: neoplastic nodule, dosed 130 weeks, study length 130 weeks) 3.48 mg/kg/day; (rat, strain Fischer 344, females, by gavage, site: lung, lesion: alveolar/bronchiolar adenoma, dosed 130 weeks, study length 130 weeks) 14.4 mg/kg/day; (rat, strain Fischer 344, females, by gavage, site: lung, lesion: alveolar/bronchiolar carcinoma, dosed 130 weeks, study length 130 weeks) 24.9 mg/kg/day; (rat, strain Fischer 344, females, by gavage, site: lung, lesion: several types, types named in the paper, dosed 130 weeks, study length 130 weeks) 8.06 mg/kg/day; (rat, strain Fischer 344, males, by gavage, site: liver, lesion: neoplastic nodule, dosed 130 weeks, study length 130 weeks) 4.78 mg/kg/day; (rat, strain Fischer 344, males, by gavage, site: lung, lesion: alveolar/bronchiolar adenoma, dosed 130 weeks, study length 130 weeks) 8.46 mg/kg/day. Further, the TD50 is 2.46 mg/kg/day (rat, strain Fischer 344, males, by gavage, site: lung, lesion: alveolar/bronchiolar carcinoma, dosed 130 weeks, study length 130 weeks); 1.09 mg/kg/day (rat, strain Fischer 344, males, by gavage, site: lung, lesion: several types, types named in the paper, dosed 130 weeks, study length 130 weeks); 2.26 mg/kg/day (rat, strain Fischer 344, males, by gavage, site: testis, lesion: interstitial-cell tumor, dosed 130 weeks, study length 130 weeks).
Take `O=CC(O)C(O)C(O)C(O)COC1OC(COC2OC(CO)C(O)C(O)C2O)C(O)C(O)C1O` (stereo unspecified): the TD50 (rat, strain ACI, females, in feed, site: urinary bladder, lesion: one or several types, types not named, dosed 68 weeks, study length 68 weeks) was 1640 mg/kg/day (inactive) and the TD50 (rat, strain ACI, males, in feed, site: urinary bladder, lesion: one or several types, types not named, dosed 68 weeks, study length 68 weeks) was 3190 mg/kg/day (inactive).
As for `CS(=O)(=O)OCCCNCCCOS(C)(=O)=O`, the TD50 (mouse, strain B6C3F1, females, i.p., site: any site (literature study), lesion: several types, types named in the paper, dosed 52 weeks, study length 86 weeks) was 1.17 mg/kg/day (inactive); the TD50 (mouse, strain B6C3F1, females, i.p., site: lung, lesion: alveolar/bronchiolar adenoma + alveolar/bronchiolar carcinoma, dosed 52 weeks, study length 86 weeks) was 6.88 mg/kg/day; the TD50 (mouse, strain B6C3F1, males, i.p., site: all sites, lesion: lymphoma, dosed 52 weeks, study length 78 weeks) was 37.7 mg/kg/day (inactive); the TD50 (mouse, strain B6C3F1, males, i.p., site: any site (literature study), lesion: several types, types named in the paper, dosed 52 weeks, study length 78 weeks) came to 2.07 mg/kg/day; the TD50 (rat, strain Sprague-Dawley, females, i.p., site: any site (literature study), lesion: several types, types named in the paper, dosed 36 weeks, study length 80 weeks) is 0.616 mg/kg/day; the TD50 (rat, strain Sprague-Dawley, females, i.p., site: liver, lesion: hepatocellular adenoma + hepatocellular carcinoma + neoplastic nodule, dosed 36 weeks, study length 80 weeks) stood at 5.01 mg/kg/day. The TD50 is, setting by setting: (rat, strain Sprague-Dawley, females, i.p., site: peritoneum, lesion: fibrosarcoma + sarcoma, NOS, dosed 36 weeks, study length 80 weeks) 2.74 mg/kg/day; (rat, strain Sprague-Dawley, males, i.p., site: any site (literature study), lesion: several types, types named in the paper, dosed 36 weeks, study length 80 weeks) 1.3 mg/kg/day; (rat, strain Sprague-Dawley, males, i.p., site: peritoneum, lesion: fibrosarcoma + fibroma + sarcoma, NOS, dosed 36 weeks, study length 80 weeks) 0.915 mg/kg/day.
For the compound `CCCl`, the TD50 (mouse, strain B6C3F1, females, inhaled, site: all sites, lesion: malignant lymphoma, histiocytic type + malignant lymphoma, mixed type + malignant lymphoma, lymphocytic type + malignant lymph, dosed 100 weeks, study length 100 weeks) was determined as 9960 mg/kg/day; the TD50 (mouse, strain B6C3F1, females, inhaled, site: any site (literature study), lesion: several types, types named in the paper, dosed 100 weeks, study length 100 weeks) came to 1380 mg/kg/day; the TD50 (mouse, strain B6C3F1, females, inhaled, site: liver, lesion: hepatocellular adenoma + hepatocellular carcinoma + neoplastic nodule, dosed 100 weeks, study length 100 weeks) amounted to 7220 mg/kg/day; the TD50 (mouse, strain B6C3F1, females, inhaled, site: liver, lesion: hepatocellular adenoma + hepatocellular carcinoma, dosed 100 weeks, study length 100 weeks) was 7220 mg/kg/day; the TD50 (mouse, strain B6C3F1, females, inhaled, site: liver, lesion: hepatocellular carcinoma, dosed 100 weeks, study length 100 weeks) was 7580 mg/kg/day; the TD50 (mouse, strain B6C3F1, females, inhaled, site: lung, lesion: alveolar/bronchiolar adenoma + alveolar/bronchiolar carcinoma, dosed 100 weeks, study length 100 weeks) was determined as 8640 mg/kg/day. In addition, the TD50 was 1810 mg/kg/day (mouse, strain B6C3F1, females, inhaled, site: uterus, lesion: carcinoma, dosed 100 weeks, study length 100 weeks); 10100 mg/kg/day (mouse, strain B6C3F1, males, inhaled, site: any site (literature study), lesion: several types, types named in the paper, dosed 100 weeks, study length 100 weeks); 34100 mg/kg/day (mouse, strain B6C3F1, males, inhaled, site: liver, lesion: hepatocellular adenoma + hepatocellular carcinoma + neoplastic nodule, dosed 100 weeks, study length 100 weeks); 9910 mg/kg/day (mouse, strain B6C3F1, males, inhaled, site: lung, lesion: alveolar/bronchiolar adenoma + alveolar/bronchiolar carcinoma, dosed 100 weeks, study length 100 weeks); 12700 mg/kg/day (mouse, strain B6C3F1, males, inhaled, site: lung, lesion: alveolar/bronchiolar adenoma, dosed 100 weeks, study length 100 weeks); 2660 mg/kg/day (rat, strain Fischer 344, females, inhaled, site: any site (literature study), lesion: several types, types named in the paper, dosed 102 weeks, study length 105 weeks). The TD50 (rat, strain Fischer 344, females, inhaled, site: brain, lesion: astrocytoma, malignant, dosed 102 weeks, study length 105 weeks) stood at 21000 mg/kg/day; the TD50 (rat, strain Fischer 344, females, inhaled, site: uterus, lesion: endometrial stromal polyp, dosed 102 weeks, study length 105 weeks) was 10200 mg/kg/day; the TD50 (rat, strain Fischer 344, males, inhaled, site: any site (literature study), lesion: several types, types named in the paper, dosed 102 weeks, study length 105 weeks) amounted to 1600 mg/kg/day; the TD50 (rat, strain Fischer 344, males, inhaled, site: liver, lesion: hepatocellular adenoma + hepatocellular carcinoma + neoplastic nodule, dosed 102 weeks, study length 105 weeks) was 47700 mg/kg/day; the TD50 (rat, strain Fischer 344, males, inhaled, site: skin, lesion: basal-cell carcinoma + sebaceous adenoma + trichoepithelioma, dosed 102 weeks, study length 105 weeks) was determined as 3210 mg/kg/day; the TD50 (rat, strain Fischer 344, males, inhaled, site: skin, lesion: basal-cell carcinoma, dosed 102 weeks, study length 105 weeks) turned out to be 4970 mg/kg/day.
For the compound `NC(=S)NNC(N)=S`, the TD50 (mouse, strain B6C3F1, females, in feed, site: any site (literature study), lesion: several types, types named in the paper, dosed 94 weeks, study length 94 weeks) amounted to 4350 mg/kg/day; the TD50 (mouse, strain B6C3F1, females, in feed, site: liver, lesion: hepatocellular adenoma + hepatocellular carcinoma + neoplastic nodule, dosed 94 weeks, study length 94 weeks) is 5670 mg/kg/day; the TD50 (mouse, strain B6C3F1, females, in feed, site: liver, lesion: hepatocellular carcinoma, dosed 94 weeks, study length 94 weeks) is 5670 mg/kg/day; the TD50 (mouse, strain B6C3F1, females, in feed, site: lung, lesion: alveolar/bronchiolar adenoma + alveolar/bronchiolar carcinoma, dosed 94 weeks, study length 94 weeks) was determined as 22900 mg/kg/day; the TD50 (mouse, strain B6C3F1, males, in feed, site: any site (literature study), lesion: several types, types named in the paper, dosed 94 weeks, study length 94 weeks) is 20000 mg/kg/day (inactive); the TD50 (rat, strain Fischer 344, females, in feed, site: any site (literature study), lesion: several types, types named in the paper, dosed 109 weeks, study length 109 weeks) was 842 mg/kg/day (inactive). The TD50 (rat, strain Fischer 344, females, in feed, site: liver, lesion: hepatocellular adenoma + hepatocellular carcinoma + neoplastic nodule, dosed 109 weeks, study length 109 weeks) is 131000 mg/kg/day; the TD50 (rat, strain Fischer 344, males, in feed, site: any site (literature study), lesion: several types, types named in the paper, dosed 109 weeks, study length 109 weeks) was determined as 960 mg/kg/day; the TD50 (rat, strain Fischer 344, males, in feed, site: liver, lesion: hepatocellular adenoma + hepatocellular carcinoma + neoplastic nodule, dosed 109 weeks, study length 109 weeks) was determined as 5010 mg/kg/day; the TD50 (rat, strain Fischer 344, males, in feed, site: pituitary gland, lesion: carcinoma, NOS, dosed 109 weeks, study length 109 weeks) was 2620 mg/kg/day (inactive).
